Experimental data as given in the NIST ThermoML archive (doi:10.1016/j.jct.2009.05.009).

Test: xn = mol fraction of the nth substance listed
Settings: 101.3 kPa, Liquid, Vibrating tube method

CCCC[N+]1(C)CCCC1.O=S(=O)([N-]S(=O)(=O)C(F)(F)F)C(F)(F)F + O
mass density [kg/m3]
Settings	298.21 K	323.21 K
x2 = 0	1395.3	1373.6
x2 = 0.0298	–	1372.5
x2 = 0.0435	1394	–
x2 = 0.0654	1393.2	–
x2 = 0.0673	–	1371.1
x2 = 0.086	1392.3	–
x2 = 0.0913	1392.1	–
x2 = 0.1012	–	1369.9
x2 = 0.1262	1390.7	–
x2 = 0.1396	1390.1	–
x2 = 0.1406	–	1368.3
x2 = 0.1909	1388.1	–
x2 = 0.2033	–	1365.3
x2 = 0.2228	1387.1	–

CCCC[n+]1ccn(C)c1.O=S(=O)([N-]S(=O)(=O)C(F)(F)F)C(F)(F)F + O
mass density [kg/m3]
Settings	298.2 K	323.21 K
x2 = 0	1437.1	1413.8
x2 = 0.0308	1435.7	–
x2 = 0.0482	–	1411.8
x2 = 0.0753	1434	–
x2 = 0.0816	–	1410.5
x2 = 0.119	–	1408.8
x2 = 0.1194	1432.2	–
x2 = 0.1597	–	1407.1
x2 = 0.1731	1430	–
x2 = 0.2141	–	1404.5
x2 = 0.2391	1426.7	–
x2 = 0.2583	–	1402

CCn1cc[n+](C)c1.O=S(=O)([N-]S(=O)(=O)C(F)(F)F)C(F)(F)F + O
mass density [kg/m3]
Settings	298.19 K	323.17 K
x2 = 0	1519.3	1494.7
x2 = 0.0209	1518.3	–
x2 = 0.0353	–	1493.1
x2 = 0.0499	1516.9	–
x2 = 0.0581	–	1492
x2 = 0.0631	1516.2	–
x2 = 0.0834	–	1490.6
x2 = 0.1164	–	1488.7
x2 = 0.1205	1513	–
x2 = 0.1608	1510.7	–
x2 = 0.1611	–	1486.2
x2 = 0.2032	1508.1	–
x2 = 0.2221	–	1482.4
x2 = 0.3025	1501.3	–

CCCCn1cc[n+](C)c1.F[P-](F)(F)(F)(F)F [1-butyl-3-methylimidazolium hexafluorophosphate] + O
mass density [kg/m3]
Settings	x2 = 0	x2 = 0.0431	x2 = 0.0982	x2 = 0.1222	x2 = 0.1566	x2 = 0.1873	x2 = 0.2548	x2 = 0.2971
298.15 K	1368.3	1366.5	1363.5	1362.1	1360.1	1358.5	1355.5	1354.1
323.15 K	1347.7	1345.6	1342.2	1340.6	1338.5	1336.4	1332.3	1329.9

CCCCn1cc[n+](C)c1.F[B-](F)(F)F [1-butyl-3-methylimidazolium tetrafluoroborate] + O
mass density [kg/m3]
Settings	x2 = 0	x2 = 0.0895	x2 = 0.195	x2 = 0.308	x2 = 0.4996	x2 = 0.75	x2 = 0.899
298.15 K	1201.1	1198.3	1194.4	1189.3	1177.8	1147.9	1100.7
303.15 K	1197.4	1194.6	1190.9	1185.8	1173.9	1143.8	1097.2
333.15 K	1175.4	1172.8	1169	1163.9	1151.5	1121	1076.4
